Assay [1] has as its system gram positive bacteria. The experiment in a line: MIC antimicrobial assay, microdilution broth method (NCCLS), gram positive bacteria. Format: cell-based. As to conditions: range over the gram positive test organisms; 35° C., 16-20 hours. Here is the method:
(§1) 2. MIC Anitimicrobial Assay
(§2) The in vitro antimicrobial activity of the compounds was determined by the microdilution broth method following the test method from the National Committee for Laboratory Standards (NCCLS). This method is described in the NCCLS Document M7-A2, Vol. 10, No. 8 "Methods for Dilution Antimicrobial Susceptibility Test for Bacteria that Grow Aerobically--Second Edition."
(§3) In this method two-fold serial dilutions of drug in cation supplemented Mueller-Hinton broth are added to wells in microdilution trays. The test organisms are prepared by adjusting the turbidity of actively growing broth cultures so that the final concentration of test organism after it is added to the wells is approximately 5×10^4 CFUs/well.
(§4) Following inoculation of the microdilution trays, the trays are incubated at 35° C. for 16-20 hours and then read. […] The amount of growth in the wells containing the test compound is compared with the amount of growth in the growth-control wells (no test compound) used in each tray. As set forth in Tables 1 and 2, compounds of the present invention were tested against a variety of Gram+ and Gram- pathogenic bacteria resulting in a range of activities, from 1→128 μg/mL depending on the organism tested. The following test organisms were utilized in the assay:
Enterococcus faecalis ATCC 29212
Enterococcus faecalis oc 3041
Enterococcus faecium oc 2993
Methicillin resistant Staphylococcus aureus oc 2089
Methicillin resistant Staphylococcus aureus oc667
Staphylococcus aureus ATCC 29213
Staphylococcus aureus ATCC 6538
Staphylococcus epidermidis oc 2603
Background: Broth dilution looks for growth in wells or tubes with falling amounts of substance.

For assay [2], the system named is gram negative bacteria. The experiment in a line: MIC antimicrobial assay, microdilution broth method (NCCLS), gram negative bacteria. It counts as cell-based. As to conditions: range over the gram negative test organisms; 35° C., 16-20 hours. Here is the method: as §1, §2, §3, §4
Escherichia coli oc 2530 ss
Klebsiella pneumoniae oc 1943
Pseudomonas aeroginosa oc 161
Pseudomonas aeroginosa ATCC 27853

For assay [3], the target named is T1, Kinase A and SpoOF (Bacillus subtilis, UniProt P16497).
T1 construct: made in house; host or cells: recombinant E. coli (overexpression)
T1 sequence (P16497 1-606): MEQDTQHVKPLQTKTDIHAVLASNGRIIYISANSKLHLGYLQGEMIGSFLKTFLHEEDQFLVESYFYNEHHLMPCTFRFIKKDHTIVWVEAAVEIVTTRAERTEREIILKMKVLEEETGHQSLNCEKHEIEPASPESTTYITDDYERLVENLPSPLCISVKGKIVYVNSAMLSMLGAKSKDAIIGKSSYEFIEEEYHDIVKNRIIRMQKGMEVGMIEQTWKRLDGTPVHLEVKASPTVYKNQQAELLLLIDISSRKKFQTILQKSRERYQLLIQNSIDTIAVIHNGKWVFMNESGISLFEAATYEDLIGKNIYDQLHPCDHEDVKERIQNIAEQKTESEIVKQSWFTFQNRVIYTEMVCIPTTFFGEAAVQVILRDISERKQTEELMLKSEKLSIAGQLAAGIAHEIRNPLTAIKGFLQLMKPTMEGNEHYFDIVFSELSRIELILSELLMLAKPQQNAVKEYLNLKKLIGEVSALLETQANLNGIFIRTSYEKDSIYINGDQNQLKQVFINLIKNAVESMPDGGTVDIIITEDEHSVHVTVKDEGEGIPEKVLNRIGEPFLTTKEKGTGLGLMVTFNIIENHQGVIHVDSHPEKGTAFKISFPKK
In words: Autophosphorylation of Kinase A and Transphosphorylation of SpoOF Assay (HPK in vitro assay). Format: biochemical. Conditions: inhibition of KinA autophosphorylation / SpoOF transphosphorylation, inhibitor concentrations from 1 to 500 μM. In a few lines: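 Recombinant KinA and SpoOF (from E. coli) preincubated 15 min on ice with compound (1.0 mM solution in 5% DMSO, stock), then 10 min at room temperature with [32P]ATP. Labelled proteins resolved by SDS gel, quantified by phosphoimager; IC50 from 1–500 μM compound range.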

In brackets after ≈: the same amount, converted by molar mass.

`NCCc1ccc(OCCC2Oc3ccccc3N(Cc3ccc(Cl)cc3)C2=O)cc1` (centres unmarked) [Compound 6, 2-[2-[4-(2-Aminoethyl)phenoxy]ethyl]-4-(4-chlorobenzyl)-3,4-dihydro-3-oxo-2H-1,4-benzoxazine]: the MIC in assay [1] lay within 1 to 2 µg/mL (≈ 2.29 to 4.58 µM); in assay [2] it was 2 to 64 µg/mL (≈ 4.58 to 146 µM). In assay [3], the half-maximal inhibitory concentration (IC50) is on record as 61 µM.
Turning to `NCCc1cccc(OCCC2Oc3ccccc3N(Cc3ccc(Cl)cc3)C2=O)c1` (centres unmarked) [Compound 8, 2-[2-[3-(2-Aminoethyl)phenoxy]ethyl]-4-(4-chlorobenzyl)-3,4-dihydro-3-oxo-2H-1,4-benzoxazine], the figures for the minimum inhibitory concentration (MIC) in assay [1] and in assay [2] were 8 to 16 µg/mL (≈ 18.3 to 36.6 µM) and 8 to 128 µg/mL (≈ 18.3 to 293 µM), respectively. This molecule also returned an IC50 in assay [3] of 89 µM.
On the same counts, the results for `CCCCCN1C(=O)C(CCOc2ccc(CCNC(=N)N)cc2)Oc2ccccc21` (centres unmarked) [Compound 61, 3,4-Dihydro-2-{2-[4-(2-guanidinoethyl)phenoxy]ethyl}-3-oxo-4-pentyl-2H-1,4-benzoxazine] are 4 to 8 µg/mL (≈ 9.42 to 18.8 µM), 4 to 64 µg/mL (≈ 9.42 to 151 µM) and 41 µM.
Molecule `NCc1cccc(OCCC2Oc3ccccc3N(Cc3cccc(Cl)c3)C2=O)c1` (centres unmarked) [Compound 74, 2-{2-[3-(Aminomethyl)phenoxy]ethyl}-4-(3-chlorobenzyl)-3,4-dihydro-3-oxo-2H-1,4-benzoxazine] came in with an MIC in assay [1] of 8 to 16 µg/mL (≈ 18.9 to 37.8 µM). This molecule showed an IC50 in assay [3] of 81 µM.
Molecule `NCCCc1ccc(OCCC2Oc3ccccc3N(Cc3cccc(Cl)c3)C2=O)cc1` (centres unmarked) [Compound 76, 2-{2-[4-(3-Aminopropyl)phenoxy]ethyl}-4-(3-chlorobenzyl)-3,4-dihydro-3-oxo-2H-1,4-benzoxazine] returned an MIC in assay [1] of 8 µg/mL (≈ 17.7 µM). In addition, the IC50 in assay [3] is reported as 32 µM.
Taken in the same sequence, the figures for `N=C(N)NCc1ccc(OCCC2Oc3ccccc3N(Cc3cccc(Cl)c3)C2=O)cc1` (centres unmarked) [Compound 78, 4-(3-Chlorobenzyl)-3,4-dihydro-2-{2-[4-(guanidinylmethyl)phenoxy]ethyl}-3-oxo-2H-1,4-benzoxazine] were 1 to 4 µg/mL (≈ 2.15 to 8.6 µM) and 32 µM.
Taken in the same sequence, the figures for `NCCc1ccc(OCCC2Oc3ccccc3N(Cc3cccc(Cl)c3)C2=O)cc1` (centres unmarked) [Compound 79, 2-{2-[4-(2-Aminoethyl)phenoxy]ethyl}-4-(3-chlorobenzyl)-3,4-dihydro-3-oxo-2H-1,4-benzoxazine] were 8 to 16 µg/mL (≈ 18.3 to 36.6 µM) and 78 µM.
As to `N=C(N)NCCc1ccc(OCCC2Oc3ccc([N+](=O)[O-])cc3N(Cc3ccccc3Cl)C2=O)cc1` (centres unmarked) [Compound 89, 3,4-Dihydro-2-{2-[4-(2-guanidinoethyl)-phenoxy]ethyl}-6-nitro-4-(2-chlorobenzyl)-3-oxo-2H-1,4-benzoxazine], the MIC in assay [1] lay in the range of 1 to 4 µg/mL (≈ 1.91 to 7.63 µM). The IC50 in assay [3] is given as 17 µM.
On to `N=C(N)NCCc1ccc(OCCC2Oc3ccc(N)cc3N(Cc3cccc(Cl)c3)C2=O)cc1` (centres unmarked) [Compound 92, 6-Amino-4-(3-chlorobenzyl)-3,4-dihydro-2-{2-[4-(2-guanidinoethyl)phenoxy]ethyl}-3-oxo-2H-1,4-benzoxazine], for which the MIC in assay [1] was in the range of 2 to 16 µg/mL (≈ 4.05 to 32.4 µM). Further, the IC50 in assay [3] stood at 34 µM.
With `N=C(N)NCc1ccc(OCCC2CN(Cc3ccccc3Cl)c3ccccc3O2)cc1` (centres unmarked) [Compound 145, 2-[2-[4-(2-guanidinomethyl)phenoxy]ethyl]-4-(2-chlorobenzyl)-3,4-dihydro-2H-1,4-benzoxazine], the MIC in assay [1] lay within 1 to 2 µg/mL (≈ 2.22 to 4.43 µM). In assay [3], this molecule showed an IC50 of 23 µM.

The term MIC denotes the lowest concentration found to suppress growth. A higher MIC goes with weaker potency. What is called IC50 is the concentration that inhibits the measured activity by half.
